Measurements reported in patent US20180228158A1, “COMPOSITIONS AND METHODS FOR CONTROL OF DISEASE” (Monsanto Technology LLC, priority 2017, published 2018).

Tests used:
[1] = test system: soybean sudden death syndrome (fungi of the genus Fusarium); experiment: Field trial against soybean sudden death syndrome (seed treatment); type: in vivo, Fusarium virguliforme; design: key to SDS incidence: % of affected plants; SDS severity: scale not given here; details: for SDS severity: average severity of symptoms in the plots at harvest time; for SDS incidence: percentage of affected plants at harvest time in the fall
Description: (§1) A field trial was conducted to determine the efficacy of compounds as described herein against soybean sudden death syndrome. Soybean seeds were planted at the start of the spring growing season in a location where fungi of the genus Fusarium were endemic. Nothing special was done to encourage growth of the fungus or development of the SDS disease.
(§2) Compounds listed in Table 1 below were used to treat soybean seeds prior to planting.
(§3) Seeds treated with oxamyl, at a rate of 1 mg per seed, and non-treated seeds (NT) were included as controls.
(§4) Other typical agronomic data, including counts of soybean cyst nematode (SCN) eggs, were also collected throughout the trial. The percentage of affected plants and the observed SDS disease severity are graphically depicted in FIGS. 1 and 2, respectively.

[2] = test system: soybean cyst nematode (SCN); experiment: Field trial: counts of soybean cyst nematode (SCN) eggs; type: in vivo; details: for Fall Eggs/100 cc: SCN egg count in fall; for Spring Eggs/100 cc: SCN egg count in spring; for Mean RF: SCN eggs
Description: as §1, §2, §3, §4

[3] = soybean seed treatment 0.5 mg/seed
[4] = soybean seed treatment 1 mg/seed

SMILES	SDS severity [1, 3]	SDS incidence [1, 3]	SDS severity [1, 4]	SDS incidence [1, 4]	Fall Eggs/100 cc [2, 3] [eggs/100 cc]	Spring Eggs/100 cc [2, 3] [eggs/100 cc]	Mean RF [2, 3]	Fall Eggs/100 cc [2, 4] [eggs/100 cc]	Spring Eggs/100 cc [2, 4] [eggs/100 cc]	Mean RF [2, 4]
Cc1cc(Cl)ccc1-c1noc(-c2ccco2)n1 [DC5823]	2.25	55	2.5	46.25	3325	1075	3.35	1100	1450	1.625
c1ccc(-c2noc(-c3cccs3)n2)cc1 [DC1822]	2	45	1.5	28.75	2600	1175	3.875	2100	700	6.425
CNC(=O)O/N=C(\SC)C(=O)N(C)C [Oxamyl, oxamyl, reference compound]	–	–	1.5	32.5	–	–	–	3075	1050	6.65
Clc1ccc(-c2noc(-c3ccco3)n2)cc1 [DC5523]	2	47.5	2	26.25	1925	675	5.35	1725	800	4.325
